Experiments:
Type in all cases: cell-based
Aeromonas hydrophila = assay: MIC against Gram-negative bacteria: Aeromonas hydrophila; settings: A. hydrophila; 10 h cultivation at 37° C.; 5×10^5 CFU/mL
Outline: (§1)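 MIC = lowest concentration of recombinant protein showing no growth. Test proteins: purified human-derived EGF domain proteins, two-fold dilution series, three wells per concentration; inoculum 5×10^5 CFU/mL in LB; incubation 37° C with shaking at 175 rpm.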

Pseudomonas aeruginosa = assay: MIC against Gram-negative bacteria: Pseudomonas aeruginosa; settings: P. aeruginosa; 10 h cultivation at 37° C.; 5×10^5 CFU/mL
Outline: as §1

Proteus mirabilis = assay: MIC against Gram-negative bacteria: Proteus mirabilis; settings: P. mirabilis; 10 h cultivation at 37° C.; 5×10^5 CFU/mL
Outline: as §1

Proteus vulgaris = assay: MIC against Gram-negative bacteria: Proteus vulgaris; settings: P. vulgaris; 10 h cultivation at 37° C.; 5×10^5 CFU/mL
Outline: as §1

Klebsiella pneumonia = assay: MIC against Gram-negative bacteria: Klebsiella pneumonia; settings: K. pneumonia; 10 h cultivation at 37° C.; 5×10^5 CFU/mL
Outline: as §1

Citrobacter diversus = assay: MIC against Gram-negative bacteria: Citrobacter diversus; settings: C. diversus; 10 h cultivation at 37° C.; 5×10^5 CFU/mL
Outline: as §1

Serratia marcescens = assay: MIC against Gram-negative bacteria: Serratia marcescens; settings: S. marcescens; 10 h cultivation at 37° C.; 5×10^5 CFU/mL
Outline: as §1

E. coli DH5α = assay: Antibacterial activity: MIC and growth curve against E. coli DH5α in 96-well plate; settings: minimal inhibitory concentration against E. coli DH5α; 96-well plate, 5×10^5 CFU/mL, 37° C., judged after 8 h
Outline: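 Log-phase DH5α (OD600 about 0.5, 37° C, 185 rpm in LB) was pelleted, resuspended in fresh LB and seeded at 5×10^5 CFU/mL with recombinant protein at 50, 25 and 12.5 μg/mL (two-fold series), in triplicate. Plates were shaken at 175 rpm, 37° C, and OD600 was read every 30 min. MIC was the lowest concentration with no growth.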

E. coli BL21 = assay: MIC against Gram-negative bacteria: E. coli BL21; settings: E. coli BL21; 10 h cultivation at 37° C.; 5×10^5 CFU/mL
Outline: as §1

Moraxella catarrhalis = assay: MIC against Gram-negative bacteria: Moraxella catarrhalis; settings: M. catarrhalis; 10 h cultivation at 37° C.; 5×10^5 CFU/mL
Outline: as §1

Enterobacter cloacae = assay: MIC against Gram-negative bacteria: Enterobacter cloacae; settings: E. cloacae; 10 h cultivation at 37° C.; 5×10^5 CFU/mL
Outline: as §1

Substance | MIC (μg/mL) A. hydrophila (Aeromonas hydrophila) [µg/mL] | MIC (μg/mL) P. aeruginosa (Pseudomonas aeruginosa) [µg/mL] | MIC (μg/mL) P. mirabilis (Proteus mirabilis) [µg/mL] | MIC (μg/mL) P. vulgaris (Proteus vulgaris) [µg/mL] | MIC (μg/mL) K. pneumonia (Klebsiella pneumonia) [µg/mL] | MIC (μg/mL) C. diversus (Citrobacter diversus) [µg/mL] | MIC (μg/mL) S. marcescens (Serratia marcescens) [µg/mL] | MIC (E. coli DH5α) [µg/mL] | MIC (μg/mL) E. coli BL21 (E. coli BL21) [µg/mL] | MIC (μg/mL) M. catarrhalis (Moraxella catarrhalis) [µg/mL] | MIC (μg/mL) E. cloacae (Enterobacter cloacae) [µg/mL]
PRT766 (GKDQCAEGGHGCQHQCVNAWAMFHCTCNPGYKLAADNKSCL; listed as Homo sapiens) | 25 | 25 | 50 | 25 | 12.5 | 12.5 | 12.5 | 25 | 50 | 25 | 50
PRT767 (AIDLCAEGTHGCEHHCVNSPGSYFCHCQVGFVLQQDQ; listed as Homo sapiens) | 12.5 | 25 | 25 | 12.5 | 12.5 | 25 | 50 | 25 | 50 | 50 | 50
PRT768 (AIDYCSFGNHSCQHECVSTPGGPRCHCREGHDLQPDGRSCQ; listed as Homo sapiens) | 12.5 | 25 | 12.5 | 25 | 12.5 | 50 | 12.5 | 12.5 | 50 | 25 | 50
PRT769 (CNGVDHGCEFQCVSEGLSYRCLCPEGRQLQADGKSC; listed as Homo sapiens) | 25 | 12.5 | 12.5 | 25 | 25 | 12.5 | 12.5 | 12.5 | 12.5 | 12.5 | 12.5
PRT770 (FRDPCDPNPCQNDGICVNVKGMASCRCISGHAFFYTGERCQ; listed as Homo sapiens) | 25 | 50 | 50 | 12.5 | 12.5 | 12.5 | 50 | 50 | 12.5 | 25 | 50
PRT771 (VQDLCSKTTCKNDGVCTVRDGKAECRCQSGEDWWYMGERCE; listed as Homo sapiens) | 12.5 | 50 | 50 | 12.5 | 12.5 | 50 | 50 | 25 | 12.5 | 12.5 | 50
PRT772 (TIVSTESLETLAPGLCQEGQIWNGKQCVCPQGYVGYQCL; listed as Homo sapiens) | 50 | 12.5 | 50 | 25 | 50 | 12.5 | 12.5 | 12.5 | 50 | 25 | 12.5
PRT773 (PSNPCQDDPCADNSLCVKLHNTSFCLCLEGYYYNSSTCK; listed as Homo sapiens) | 50 | 12.5 | 12.5 | 50 | 50 | 12.5 | 12.5 | 50 | 25 | 50 | 12.5
PRT774 (LTLRCDYYGCNQTADDCLNGLACDCKSDLQRPNPQSPFCV; listed as Homo sapiens) | 25 | 12.5 | 12.5 | 12.5 | 25 | 12.5 | 50 | 50 | 12.5 | 12.5 | 12.5
PRT775 (SSLKCPDACNAQHKQCLIKKSGGAPECACVPGYQEDANGNCQ; listed as Homo sapiens) | 12.5 | 50 | 50 | 12.5 | 12.5 | 50 | 50 | 12.5 | 25 | 12.5 | 50
PRT777 (SGDRCQLQTRCQNGGQWDGLKCQCPSTFYGSSCE; listed as Homo sapiens) | 50 | 50 | 50 | 25 | 12.5 | 50 | 12.5 | 50 | 12.5 | 12.5 | 12.5
PRT778 (QNQSCPVNYCYNQGHCYISQTLGCQPMCTCPPAFTDSRCF; listed as Homo sapiens) | 12.5 | 50 | 12.5 | 25 | 12.5 | 12.5 | 12.5 | 50 | 12.5 | 12.5 | 50
PRT779 (VSPCSRGYCDHGGQCQHLPSGPRCSCVSFSIYTAWGEHCE; listed as Homo sapiens) | 12.5 | 50 | 50 | 12.5 | 12.5 | 50 | 50 | 12.5 | 12.5 | 12.5 | 50

Reference: patent publication US9833497B2, “Human originated EGF domain proteins and use of the same” (CHENGDU SOURCEBIO LIMITED-LIABILITY COMPANY, priority 2013, dated 2017)
